Experiments:
human TRPA1 = target: T1, human TRPA1 (Homo sapiens, UniProt O75762); experiment: TRP channel agonist activity, intracellular Ca2+ imaging, hTRPA1 stably expressing cell line; format: cell-based; conditions: oxylipin compounds 200 μM and 500 μM, AITC 30 μM, Evaluation 5, FIG. 21
T1 construct: expressed in transfected cells
Text: DNA fragments containing nucleotide sequences encoding amino acid sequences of human TRPA1 (Accession No. NM_007332.3) (hereinafter referred to also as hTRPA1), human TRPV1 (Accession No. NM_080704.4) (hereinafter referred to also as hTRPV1) and human TRPM8 (Accession No. NM_024080.5) (hereinafter referred to also as hTRPM8) were inserted into pcDNA5/TO vectors (Invitrogen) to construct an hTRPA1 expression vector, an hTRPV1 expression vector and an hTRPM8 expression vector, respectively.
T-REx™_293 cells (Invitrogen) were cultured in Dulbecco's modified Eagle medium (DMEM, Nacalai Tesque Inc.) containing 10% fetal bovine serum (FBS, Cytiva) up to 60 to 70% confluent growth in the wells of a 6 well plate. T-REx™-293 cells were transfected with an hTRPA1 expression vector, an hTRPV1 expression vector or an hTRPM8 expression vector by use of Lipofectamine LTX (Invitrogen) in accordance with a manual.
To Dulbecco's modified Eagle medium (DMEM, Nacalai Tesque Inc.) containing 10% fetal bovine serum (FBS, Cytiva), hygromycin B and blasticidin S were added so as to have a concentration of […] and 5 μg/ml, respectively. In this manner, a drug selection medium was prepared. Twenty-four hours after completion of transfection, the medium of the above cells was exchanged with the drug selection medium, and thereafter, the cells were cultured for 7 days while exchanging the medium with a fresh medium every two days. Living cells were subcultured and regarded as hTRPA1 stably expressing cell line, hTRPV1 stably expressing cell line and hTRPM8 stably expressing cell line, respectively.
The day before assay, cells of the individual expressing cell lines were removed from the medium with a trypsin/EDTA solution and seeded in the wells of a 96-well black-well plate with a clear bottom so as to obtain a cell density of 5×10^4 cells to 6×10^4 cells/well. At this time, tetracycline was added to the medium so as to obtain a concentration of 1 μg/ml to induce expression of hTRPA1, hTRPV1 or hTRPM8. Culture was carried out in an incubator at 37° C. for 24 hours to 48 hours and then cells were washed with PBS. After PBS was removed from the wells, 50 μl of a calcium fluorescent indicator, Calbryte 520 AM (AAT, Bioquest), which was prepared by dissolving CaCl2 dihydrate, HEPES, BSA in an assay buffer HBSS (−) (solution prepared by adding so as to obtain a final concentration of 1 mM, 20 mM and 0.1%, respectively), so as to obtain a concentration of 4 μM, was added, to the wells and incubated at 33° C. for 45 minutes. Thereafter, the cells were again washed with the assay buffer and then 100 μl was allowed to remain in the wells to prepare cells for assay. A solution of a test substance for evaluating TRP channel agonist activity and having a concentration twice as large as the concentration for measurement was prepared within the wells of the 96-well plate and used within 30 minutes after preparation. The cells to be subjected to assay were incubated at 31° C. and a test substance solution (100 μl) was added to the cells for assay by use of Flaxstation3 (Molecular Devices) and fluorescence intensity (excitation wavelength: 490 nm, fluorescence wavelength: 525 nm) was measured every 2 seconds up to 120 seconds. Thirty seconds after initiation of measurement, the (test substance) solution was added to the cells for assay such that a final concentration of the test substance becomes a concentration for measurement.
TRP channel activation ability of a test substance was calculated as a relative value based on the activation ability of 10 μM ionomycin to each of TRP channels, in accordance with the following calculation formula. […]

[1] = Solubility of isolated oxylipin compounds (physicochemical properties); conditions: solvents listed for the isolated compound
[2] = tested on: intestinal epithelial cells; conditions: Non Patent Literature 1, cited from earlier work
[3] = in the presence of 1 μM A-967079 (TRPA1 antagonist)

T1 sequence (O75762 whole entry): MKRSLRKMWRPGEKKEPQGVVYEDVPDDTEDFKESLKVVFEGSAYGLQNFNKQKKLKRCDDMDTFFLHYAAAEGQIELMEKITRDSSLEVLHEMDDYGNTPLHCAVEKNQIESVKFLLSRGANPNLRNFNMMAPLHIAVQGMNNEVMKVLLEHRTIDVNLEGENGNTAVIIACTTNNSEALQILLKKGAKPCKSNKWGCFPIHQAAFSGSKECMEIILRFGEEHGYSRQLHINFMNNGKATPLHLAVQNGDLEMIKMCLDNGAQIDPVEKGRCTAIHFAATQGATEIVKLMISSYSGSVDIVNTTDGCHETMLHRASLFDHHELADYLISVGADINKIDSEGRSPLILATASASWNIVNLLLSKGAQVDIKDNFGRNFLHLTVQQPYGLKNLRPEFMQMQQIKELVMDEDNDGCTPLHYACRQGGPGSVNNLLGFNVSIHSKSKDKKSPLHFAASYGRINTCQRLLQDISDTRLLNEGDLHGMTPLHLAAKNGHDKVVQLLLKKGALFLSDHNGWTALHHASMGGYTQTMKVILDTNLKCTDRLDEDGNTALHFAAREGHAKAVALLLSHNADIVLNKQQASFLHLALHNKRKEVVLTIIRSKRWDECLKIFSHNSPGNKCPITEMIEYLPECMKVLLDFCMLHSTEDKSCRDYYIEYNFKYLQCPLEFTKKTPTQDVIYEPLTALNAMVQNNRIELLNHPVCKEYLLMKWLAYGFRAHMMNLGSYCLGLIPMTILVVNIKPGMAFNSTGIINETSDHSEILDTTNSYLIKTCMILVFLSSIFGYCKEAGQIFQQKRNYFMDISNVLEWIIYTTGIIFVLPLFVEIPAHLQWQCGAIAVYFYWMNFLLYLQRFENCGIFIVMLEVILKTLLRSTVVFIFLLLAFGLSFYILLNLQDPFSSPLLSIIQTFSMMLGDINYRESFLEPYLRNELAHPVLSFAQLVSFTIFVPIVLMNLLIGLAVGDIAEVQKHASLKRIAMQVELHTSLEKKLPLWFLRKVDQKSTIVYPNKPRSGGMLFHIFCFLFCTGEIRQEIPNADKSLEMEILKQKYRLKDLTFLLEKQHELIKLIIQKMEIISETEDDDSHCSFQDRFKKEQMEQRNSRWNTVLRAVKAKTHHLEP

Compound | TRPA1 activation ability (human TRPA1; [3]) | TRPA1 activation ability (human TRPA1; in the absence of A-967079) | Solubility [1] | action to promote release of adrenomedullin from the intestinal epithelial cells, with a TRPA1 antagonist ([2]; TRPA1 antagonist added) | release of adrenomedullin from the intestinal epithelial cells [2]
CCCCC/C=C/C(=O)CCc1ccc(O)c(OC)c1 [Compound 6-shogaol, 6-shogaol] | – | – | – | inhibited by a TRPA1 antagonist | have an action to promote release of adrenomedullin from the intestinal epithelial cells
(7Z,13E,15Z)-12-hydroxy-7,13,15-octadecatrienoic acid and (9Z,13E,15Z)-12-hydroxy-9,13,15-octadecatrienoic acid [Compound R2-1] | did not show TRPA1 activation ability | showed TRPA1 activation ability in the absence of A-967079 in a concentration dependent manner | – | – | –
CC/C=C/CC(O)/C=C/C=C\CCCCCCCC(=O)O (stereo not shown) [Compound R1-2, (9Z,11E,15E)-13-hydroxy-9,11,15-octadecatrienoic acid] | did not show TRPA1 activation ability | showed TRPA1 activation ability in the absence of A-967079 in a concentration dependent manner | ethanol, methanol, acetonitrile, chloroform | – | –

Now from value to compound, other results behind:

TRPA1 activation ability (human TRPA1; [3]) | Compound | TRPA1 activation ability (human TRPA1; in the absence of A-967079) | Solubility [1] | action to promote release of adrenomedullin from the intestinal epithelial cells, with a TRPA1 antagonist ([2]; TRPA1 antagonist added) | release of adrenomedullin from the intestinal epithelial cells [2]
did not show TRPA1 activation ability | CCC(O)/C=C/C=C\C/C=C\CCCCCCCC(=O)O (stereo not shown) [Compound R2-2, (9Z,12Z,14E)-16-hydroxy-9,12,14-octadecatrienoic acid] | showed TRPA1 activation ability in the absence of A-967079 in a concentration dependent manner | ethanol, methanol, acetonitrile, ethyl acetate, chloroform | – | –
did not show TRPA1 activation ability | CC/C=C\C/C=C\C=C\C(O)CCCCCCCC(=O)O (stereo not shown) [Compound R3, (10E,12Z,15Z)-9-hydroxy-10,12,15-octadecatrienoic acid] | showed TRPA1 activation ability in the absence of A-967079 in a concentration dependent manner | ethanol, methanol, acetonitrile, ethyl acetate, chloroform | – | –
